Assay [1] concerns the target T1, Kappa (κ) opioid receptors (KOR) (Homo sapiens, UniProt P41145).
T1 construct: host or cells: unnamed cells grown in Ham's F-12 medium
As to the kind of experiment: In vitro KOR agonistic activity, cAMP based functional assay. Type of assay: cell-based. Here is the method:
a) In Vitro (EC50) Determination, Using cAMP Based Functional Assay:
In vitro, KOR agonistic activity of test compounds were assessed using cAMP based functional assay. A 96-well plate was seeded at the density of 30,000 cells/well in 100 μl/well of complete Ham's F-12 medium. After seeding, the plates were incubated overnight at 37° C., 5% CO2, in CO2 Incubator. Overnight medium was discarded and plate washed with 100 μl/well of sterile PBS. Then 90 μl of 0.1 mM IBMX containing 0.5% Fatty acid free BSA in plain HamsF12 was added to each well. This was allowed to incubate for 30 minutes at 37° C., 5% CO2. Forskolin 20 μM in 0.5% Fatty acid free BSA was added to each well and allowed to incubate at room temperature for 5 minutes. Dilution of test compounds was made at 200× in DMSO and then diluted 1:10 times in BSA containing plain HamsF12. Agonist (test compounds, in 10% DMSO) was added to each well (5 μl) and allowed to incubate for 20 minutes at 37° C., 5% CO2. After 20 minutes, media was aspirated from the wells and the wells were washed with 1×PBS. Cell lysis buffer 4× (Arbor Assays, Cat # X074-60 ML) was diluted 1:4 in MilliQ and 90 μl of this buffer was added per well. Cells were allowed to shake at 500 rpm, room temperature for 20 minutes. Cell lysate was collected in 1.5 ml eppendorf tubes and centrifuged at 13.2 k rpm, 4° C. for 15 minutes. 50 μl of the supernatant of cell lysate was then used for cAMP estimation by cAMP direct ELISA kit (Arbor Assays, Cat # K019-H5).

Assay [2] has as its system acetic acid induced writhing. Description: Acetic acid-induced writhing model (antinociceptive activity). The settings on record: acetic acid induced pain model, ICR mice (n = 6), iv. It is filed as in vivo. The method, then: In Vivo (ED50) Determination, Using Acetic Acid-Induced Writhing Model
The acetic acid induced writhing assay can detect antinociceptive activity for opioid drug, acting at peripheral, spinal and supraspinal levels. Animals were fasted 12 to 16 h prior testing. The nociceptive response (abdominal contractions or writhes) was induced by diluted acetic acid (0.6%, 10 ml/kg, for mice and 2.5%, 0.5 ml/rat) administered intraperitoneally (i.p.) at time 0 min.
In mouse experiments, compounds were administered orally, intravenously (i.v.) or subcutaneously (s.c.). To determine the antinociceptive potency and efficacy, full dose-response curves were constructed with test compounds, given 5 min prior to acetic acid administration. The duration of action was determined by using increasing pretreatment time (5, 60, and 120 min.), prior to acetic acid administration, for a sub-maximally effective dose defined during the dose-response curve study. In rat experiments, compounds were administered orally, intravenously (i.v.) or subcutaneously (s.c.), 15 min prior to acetic acid administration. The number of writhes was counted over the 15 min period following acetic acid administration. A writhe is defined as a constriction of the abdominal area, often with extension of the hind legs. Percentage maximum possible effect (MPE) was calculated as: % MPE=100−[(No. of writhes in test compound treated animal/No. of writhes in vehicle treated animal)]×100. ED50 dose was determined using GraphPad Prism.

Setting [3] is: cAMP based functional assay, forskolin stimulated, read-out: In-vitro EC50.
Where [4] appears, read: refers to Table-4, read-out: in vitro KOR agonistic activity EC50.

Read-outs that look alike come from different tables or passages of the source. *1 amine or outer side, *2 acyl side, *3 side chain or, on linkers, in order; H or OH if unused. Where a SMILES comes first, the peptide text is derived from it. [ ]: non-standard residue; d: D form. The star is where a group is joined. X26 = O=C(CN1CC2CC(C1)N2*)OCc1ccccc1; X9 = O=C(CN1CC2CC(C1)N2[*:1])[*:2]; X28 = O=C(O)CCN(CCC(=O)O)*; X4 = O=C(O)CN1CC2CC(C1)N2*; Ac6c = NC1(C(=O)O)CCCCC1; Ac5c = NC1(C(=O)O)CCCC1; X10 = OCCN(CCO)*

This note sets out measurements from patent US10550150B2, “Short-chain peptides as Kappa (κ) opioid receptors (KOR) agonist” (CADILA HEALTHCARE LIMITED, priority 2015, dated 2020).

By EC50 is commonly meant the concentration that produces a half-maximal response.

T1 sequence (P41145 whole entry): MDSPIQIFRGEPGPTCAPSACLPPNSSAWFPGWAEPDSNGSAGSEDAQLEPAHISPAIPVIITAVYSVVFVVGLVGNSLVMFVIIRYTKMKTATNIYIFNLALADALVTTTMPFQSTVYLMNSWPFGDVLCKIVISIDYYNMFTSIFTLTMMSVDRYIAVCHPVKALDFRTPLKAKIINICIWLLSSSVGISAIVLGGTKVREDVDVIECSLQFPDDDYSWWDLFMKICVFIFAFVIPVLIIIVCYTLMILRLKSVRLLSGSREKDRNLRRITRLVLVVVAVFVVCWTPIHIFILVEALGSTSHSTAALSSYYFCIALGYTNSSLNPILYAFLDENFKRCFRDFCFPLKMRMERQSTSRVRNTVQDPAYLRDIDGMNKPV

As to `CC(C)CC(NC(=O)C(Cc1ccccc1)NC(=O)C(N)Cc1ccccc1)C(=O)NC(CCCCN)C(=O)N1CC2=C(CN(CC(=O)O)C2)C1` (centres unmarked) [Compound 4], the EC50 is 0.047 nM in assay [1] (setting [3]) and less than 0.1 nM in assay [1] (setting [4]).
As for `CC(C)CC(NC(=O)C(Cc1ccccc1)NC(=O)C(N)Cc1ccccc1)C(=O)NC(CCCCN)C(=O)N1CC2=C(CN(CC(N)=O)C2)C1` (centres unmarked) [Compound 5], the “In-vivo ED50” value in assay [2] worked out at 0.07 mpk. For the same molecule, the results for the EC50 in assay [1] (setting [3]) and in assay [1] (setting [4]) were 0.009 nM and less than 0.1 nM, respectively.
With `CC(C)CC(NC(=O)C(Cc1ccccc1)NC(=O)C(N)Cc1ccccc1)C(=O)NC(CCCCN)C(=O)N1CC2=C(CN(C(=O)CO)C2)C1` (centres unmarked) [Compound 10], the EC50 in assay [1] (setting [3]) turned out to be 0.4 nM.
Consider `CC(C)CC(NC(=O)C(Cc1ccccc1)NC(=O)C(N)Cc1ccccc1)C(=O)NC(CCCCN)C(=O)N1CC2CNCC2C1` (centres unmarked) [Compound 13], for which the “In-vivo ED50” value in assay [2] is reported as 1 mpk.
`CC(C)CC(NC(=O)C(Cc1ccccc1)NC(=O)C(N)Cc1ccccc1)C(=O)NC(CCCCN)C(=O)N1CC2CN(CC(N)=O)CC2C1` (stereo not drawn) [Compound 17, H2N-Phe-Phe-Leu-Lys-Hpp-CONH2]: the EC50 in assay [1] (setting [3]) came to 0.38 nM.
As to `CC(C)CC(NC(=O)C(Cc1ccccc1)NC(=O)C(N)Cc1ccccc1)C(=O)NC(CCCCN)C(=O)N1CC2CN(CCO)CC2C1` (centres unmarked) [Compound 18], the “In-vivo ED50” value in assay [2] was found to be 1 mpk.
Still for that read-out and setting: in the case of `CC(C)CC(NC(=O)C(Cc1ccccc1)NC(=O)C(N)Cc1ccccc1)C(=O)NC(CCCCN)C(=O)N1CC2CN(S(C)(=O)=O)CC2C1` (centres unmarked) [Compound 19] it was 0.28 mpk.
As to `CC(C)CC(NC(=O)C(Cc1ccccc1)NC(=O)C(N)Cc1ccccc1)C(=O)NC(CCCCN)C(=O)N1CC2CC(=O)CC2C1` (centres unmarked) [Compound 23], the EC50 in assay [1] (setting [3]) is 0.085 nM.
As to `CC(C)CC(NC(=O)C(Cc1ccccc1)NC(=O)C(N)Cc1ccccc1)C(=O)NC(CCCCN)C(=O)N1CC2CC(CN)CC2C1` (centres unmarked) [Compound 26], the EC50 in assay [1] (setting [3]) amounted to 0.22 nM.
`CCOC(=O)C1CC2CN(C(=O)C(CCCCN)NC(=O)C(CC(C)C)NC(=O)C(Cc3ccccc3)NC(=O)C(N)Cc3ccccc3)CC2C1` (centres unmarked) [Compound 27]: the EC50 in assay [1] (setting [3]) came out at 0.009 nM.
On to `CC(C)CC(NC(=O)C(Cc1ccccc1)NC(=O)C(N)Cc1ccccc1)C(=O)NC(CCCCN)C(=O)N1C2CNCC1C2` (centres unmarked) [Compound 32], for which the EC50 in assay [1] (setting [3]) amounted to 0.02 nM.
Same read-out and setting: as for `CC(C)CC(NC(=O)C(Cc1ccccc1)NC(=O)C(N)Cc1ccccc1)C(=O)NC(CCCCN)C(=O)N1C2CC1CN(C)C2` (centres unmarked) [Compound 33], the figure is 0.009 nM; as for `CC(C)CC(NC(=O)C(Cc1ccccc1)NC(=O)C(N)Cc1ccccc1)C(=O)NC(CCCCN)C(=O)N1C2CC1CN(Cc1ccccc1)C2` (centres unmarked) [Compound 34, N-(6-amino-1-(3-benzyl-3,6-diazabicyclo[3.1.1]heptan-6-yl)-1-oxohexan-2-yl)-2-(2-(2-amino-3-phenylpropanamido)-3-phenylpropanamido)-4-methylpentanamide], 0.088 nM.
For `CC(C)CC(NC(=O)C(Cc1ccccc1)NC(=O)C(N)Cc1ccccc1)C(=O)NC(CCCCN)C(=O)N1C2CC1CN(CCO)C2` (centres unmarked) [Compound 38], the “In-vivo ED50” value in assay [2] is recorded as 0.04 mpk.
Still for that read-out and setting: as for `CC(C)CC(NC(=O)C(Cc1ccccc1)NC(=O)C(N)Cc1ccccc1)C(=O)NC(CCCCN)C(=O)N1C2CC1CN(S(C)(=O)=O)C2` (centres unmarked) [Compound 39], the figure is 0.18 mpk.
On to `NCCCCC(NC(=O)C1(NC(=O)C(Cc2ccccc2)NC(=O)C(N)Cc2ccccc2)CCCCC1)C(=O)N1C2CC1CN(CC(=O)O)C2` (centres unmarked) [Compound 41] (H-FF[Ac6c]K-X4; configuration not given here), for which the EC50 in assay [1] (setting [3]) was found to be 0.015 nM.
Consider `NCCCCC(NC(=O)C1(NC(=O)C(Cc2ccccc2)NC(=O)C(N)Cc2ccccc2)CCCC1)C(=O)N1C2CC1CN(CC(=O)O)C2` (centres unmarked) [Compound 42] (H-FF[Ac5c]K-X4; configuration not given here), for which the “In-vivo ED50” value in assay [2] came to 0.23 mpk.
As to `CC(C)CC(NC(=O)C(Cc1ccccc1)NC(=O)C(N)Cc1ccccc1)C(=O)NC(CCCCN)C(=O)N1C2CC1CN(CC(=O)OCc1ccccc1)C2` (centres unmarked) [Compound 49], the EC50 in assay [1] (setting [3]) is 0.016 nM.
Still for that read-out and setting: as for `NCCCCC(NC(=O)C1(NC(=O)C(Cc2ccccc2)NC(=O)C(N)Cc2ccccc2)CCCCC1)C(=O)N1C2CC1CN(CC(=O)OCc1ccccc1)C2` (centres unmarked) [Compound 50] (H-FF[Ac6c]K-X26; configuration not given here), the figure is 0.008 nM; as for `CC(C)CC(NC(=O)C(Cc1ccccc1)NC(=O)C(N)Cc1ccccc1)C(=O)NC(CCCCN)C(=O)N1CC2CC(C1)N2` (centres unmarked) [Compound 51], 0.012 nM.
Turning to `CC(C)CC(NC(=O)C(Cc1ccccc1)NC(=O)C(C)(N)Cc1ccccc1)C(=O)NC(CCCCN)C(=O)N1CC2CC(C1)N2CC(=O)O` (centres unmarked) [Compound 57], in assay [2], the “In-vivo ED50” value amounted to 0.26 mpk.
In the case of `CC(C)CC(NC(=O)C(Cc1ccccc1)NC(=O)C(N)Cc1ccccc1)C(=O)NC(CCCCN)C(=O)N1CC2CC1CN2Cc1ccccc1` (centres unmarked) [Compound 62], in assay [2], the “In-vivo ED50” value worked out at 0.31 mpk.
On to `CC(C)CC(NC(=O)C(Cc1ccccc1)NC(=O)C(N)Cc1ccc(O)cc1)C(=O)NC(CCCCN)C(=O)N1C2CC1CN(CC(=O)O)C2` (centres unmarked) [Compound 90] (H-YFLK-X4; configuration not given here), for which the “In-vivo ED50” value in assay [2] is reported as 0.98 mpk.
Regarding `NCCCCC(NC(=O)C1(NC(=O)C(Cc2ccccc2)NC(=O)C(N)Cc2ccc(O)cc2)CCCCC1)C(=O)N1C2CC1CN(CC(=O)O)C2` (centres unmarked) [Compound 92] (H-YF[Ac6c]K-X4; configuration not given here), the EC50 in assay [1] (setting [3]) is 0.018 nM.
For the molecule `CC(C)CC(NC(=O)C(Cc1ccccc1)NC(=O)C(N)Cc1ccccc1)C(=O)NC(CCCCN)C(=O)N1C2CC1CN(C(=O)CCCCCN)C2` (centres unmarked) [Compound 93], in assay [2], the “In-vivo ED50” value was determined as 0.11 mpk.
Same read-out and setting: in the case of `CC(C)CC(NC(=O)C(Cc1ccccc1)NC(=O)C(N)Cc1ccccc1)C(=O)NC(CCCCN)C(=O)N1C2CC1CN(C(=O)C(N)CO)C2` (centres unmarked) [Compound 97] it was 0.42 mpk.
`CC(C)CC(NC(=O)C(Cc1ccccc1)NC(=O)C(N)Cc1ccccc1)C(=O)NC(CCCCN)C(=O)N1C2CC1CN(CC(=O)N(CC(=O)O)CC(=O)O)C2` (centres unmarked) [Compound 99]: in assay [1] (setting [3]), the EC50 amounted to 0.016 nM.
As for `CC(C)CC(NC(=O)C(Cc1ccccc1)NC(=O)C(N)Cc1ccccc1)C(=O)NC(CCCCN)C(=O)N1C2CC1CN(CC(=O)N(CCC(=O)O)CCC(=O)O)C2` (centres unmarked) [Compound 100] (H-FFLK[X9]-X28; configuration not given here), the EC50 in assay [1] (setting [3]) worked out at 0.015 nM.
Take `CC(C)CC(NC(=O)C(Cc1ccccc1)NC(=O)C(N)Cc1ccccc1)C(=O)NC(CCCCN)C(=O)N1C2CC1CN(CC(=O)N(CCO)CCO)C2` (centres unmarked) [Compound 101] (H-FFLK[X9]-X10; configuration not given here): the EC50 in assay [1] (setting [3]) is 0.012 nM.
As to `CC(C)CC(NC(=O)C(Cc1ccccc1)NC(=O)C(N)Cc1ccccc1)C(=O)NC(CCCCN)C(=O)N1C2CC1CN(C(=O)CN(CC(=O)O)CC(=O)O)C2` (centres unmarked) [Compound 102], the EC50 in assay [1] (setting [3]) stood at 0.012 nM.
`CC(C)CC(NC(=O)C(Cc1ccccc1)NC(=O)C(N)Cc1ccccc1)C(=O)NC(CCCCN)C(=O)N1C2CC1CN(CC(=O)NC(CCC(=O)O)C(=O)O)C2` (centres unmarked) [Compound 104] (H-FFLK[X9]E-OH; configuration not given here): the “In-vivo ED50” value in assay [2] came out at 0.07 mpk.
As for `CC(C)CC(NC(=O)C(Cc1ccccc1)NC(=O)C(N)Cc1ccccc1)C(=O)NC(CCCCN)C(=O)N1C2CCC1CC(O)C2` (centres unmarked) [Compound 105], the EC50 in assay [1] (setting [3]) came out at 0.002 nM.
